Blank lines part the entries; values can stand above or below the compound they belong to.
Target: T1, HMG-CoA reductase (microsomes of rat liver) (Rattus norvegicus, UniProt P51639)
T1 construct: from tissue; host or cells: rat liver microsomes
T1 sequence (P51639 1-887): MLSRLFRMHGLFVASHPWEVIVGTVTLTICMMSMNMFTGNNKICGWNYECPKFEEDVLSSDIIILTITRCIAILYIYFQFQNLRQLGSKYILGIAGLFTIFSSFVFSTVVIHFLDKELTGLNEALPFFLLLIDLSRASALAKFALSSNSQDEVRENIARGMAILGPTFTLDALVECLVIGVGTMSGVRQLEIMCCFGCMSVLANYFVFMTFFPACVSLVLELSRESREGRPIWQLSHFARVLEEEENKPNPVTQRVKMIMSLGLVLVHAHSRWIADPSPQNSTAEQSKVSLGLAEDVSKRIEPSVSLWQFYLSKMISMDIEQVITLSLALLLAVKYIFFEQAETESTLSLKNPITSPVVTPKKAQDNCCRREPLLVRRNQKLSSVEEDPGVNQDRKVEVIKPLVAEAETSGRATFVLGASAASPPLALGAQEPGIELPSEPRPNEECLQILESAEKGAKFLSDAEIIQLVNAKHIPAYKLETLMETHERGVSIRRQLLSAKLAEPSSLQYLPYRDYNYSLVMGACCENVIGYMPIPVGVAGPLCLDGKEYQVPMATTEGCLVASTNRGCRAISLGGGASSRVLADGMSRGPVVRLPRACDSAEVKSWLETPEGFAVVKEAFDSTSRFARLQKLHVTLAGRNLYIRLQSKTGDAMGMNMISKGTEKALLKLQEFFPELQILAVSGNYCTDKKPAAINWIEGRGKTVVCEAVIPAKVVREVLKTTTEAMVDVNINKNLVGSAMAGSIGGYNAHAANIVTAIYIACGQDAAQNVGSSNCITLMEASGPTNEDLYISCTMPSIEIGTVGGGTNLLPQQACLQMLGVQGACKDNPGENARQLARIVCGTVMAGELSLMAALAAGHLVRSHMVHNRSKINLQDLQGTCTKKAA
Assay: Test of inhibiting activity of HMG-CoA reductase (rate of decline of OD340)
Assay type: biochemical
Conditions: for Slope (rate of decline of OD340 within 5 min): blank control slope 9.971
Procedure: 1. Experimental Materials
The compound of Formula II prepared according to Example 1.
monacolin L (purchased or prepared according to the method of the contents of the present invention)
Standard Sample of Lovastatin (Purchased from Sigma)
Microsomes of rat liver (HMG-CoA reductase) were purchased, or prepared according to the following method: liver of a male rat was taken out, washed with KESD buffering solution, then centrifuged at 1,200 g for 15 min, the supernatant was taken out, and then centrifuged at 105,000 g for 90 min twice, and a centrifugation precipitate was collected. The centrifugation precipitate was added with 8.3% glycerol, heated with 37° C. bath for 1 h. The microsomes of rat liver were purified with saturated ammonium sulfate and the 33-50% purified fraction was collected. The obtained microsomes of rat liver were stored in refrigerator at −80° C.
Potassium chloride, potassium dihydrogen phosphate, ethylene diamine tetraacetic acid, dithiothreitol (all purchased from Beijing Chemical Reagent Co., Ltd.)
[…] (purchased from Merck) 3-hydroxy-3-methylglutaryl coenzyme A (HMG-CoA) and cremophore EL (purchased from Sigma).
The compound as prepared according to Example 1 was dissolved with 50% cremophore EL ethanol solution, and the concentration was 2 mg/mL; the total volume of the system was determined and it was 250 μL, and the concentration of each component was: potassium chloride 200 mM, potassium dihydrogen phosphate 160 mM, ethylene diamine tetraacetic acid 4 mM, dithiothreitol 10 mM, concentrations of two substrates, nicotinamide adenine dinucleotide and 3-hydroxy-3-methylglutaryl coenzyme A, 200 μM and 50 μM separately, pH6.8, addition of enzyme 30 μL, enzyme inhibitor 5 μL, blank control group 5 μL (solvent for dissolving sample). The dynamic change of OD340 was detected with Versamax ELIASA at 37° C. The rate of decline (represented with slope value) of OD340 within 5 min was used to evaluate the activity of HMG-CoA reductase, and then to evaluate the activity of enzyme inhibitor.

activity for inhibiting HMG-CoA reductase (in words) (conclusion drawn from Table 2): effective activity | Slope (rate of decline of OD340 within 5 min) (final concentration 40 μg/mL, 37° C., pH6.8): 7.344 | inhibition at 40 µg/mL (pH 6.8, final concentration 40 μg/mL, 37° C., pH6.8): 26.3%
Structure (SMILES): CC1C=C2C=CC(C)C(CCC3CC=CC(=O)O3)C2CC1 (stereo not shown) [6-(2-(2,6-dimethyl-1,2,6,7,8,8a-hexahydronaphthalen-1-yl)ethyl)-5,6-dihydropyran-2-one]

Slope (rate of decline of OD340 within 5 min) (final concentration 34 μg/mL, 37° C., pH6.8): 6.022 | inhibition at 34 µg/mL (pH 6.8, final concentration 34 μg/mL, 37° C., pH6.8): 39.6%
Structure (SMILES): CC[C@H](C)C(=O)O[C@H]1C[C@@H](C)C=C2C=C[C@H](C)[C@H](CC[C@@H]3C[C@@H](O)CC(=O)O3)[C@H]21 [Lovastatin]

Slope (rate of decline of OD340 within 5 min) (final concentration 30 μg/mL, 37° C., pH6.8): 7.279 | inhibition at 30 µg/mL (pH 6.8, final concentration 30 μg/mL, 37° C., pH6.8): 27%
Structure (SMILES): CC1C=C2C=CC(C)C(CCC3CC(O)CC(=O)O3)C2CC1 (stereo not shown) [monacolin L]
